Laboratory results as given in paper PMC11845477, “Exploring the principles behind antibiotics with limited resistance” (Nature Communications, 2025).
Where a SMILES comes first, the peptide text is derived from it. Bridges are numbered along the chain shown (N, C = ends). [ ]: non-standard residue; d: D form. The star is where a group is joined. X1 = NC[C@@H](CC(=O)*)c1cccc(Cl)c1; X2 = CC[C@H](C)CCCCC(=O)*; Dab = NCC[C@H](N)C(=O)O; Dap = NC[C@H](N)C(=O)O

Legend:
[1] = test system: E. coli ATCC 25922 (SEN) and E. coli NCTC13846 (MDR); assay: Frequency-of-resistance (FoR) assay, relative MIC of mutants; type: cell-based, Escherichia coli; settings: for MIC: Escherichia coli, read-out: MIC of evolved line, Escherichia coli ATCC 25922 (EC-SEN)
Method: The susceptibility of antibiotics to resistance development was evaluated in two strains of each bacterial species: a multidrug-resistant strain and an antibiotic-sensitive strain of Escherichia coli, Klebsiella pneumoniae, Acinetobacter baumannii, and Pseudomonas aeruginosa. To explore first-step resistance, we previously used a standard protocol for spontaneous frequency-of-resistance analysis (FoR assay) at multiple concentrations of each antibiotic[10],[28],[31]–[33]. […] For all other combinations, approximately 10^10 bacterial cells were exposed to one of each antibiotic on agar plates for two days at concentrations where the given strain is susceptible. We examined resistance levels by contrasting the minimum inhibitory concentration (MICs) of the mutated strains to the original wild-type bacterial strain (i.e., relative MIC).
To estimate the frequency of spontaneous mutations that confer resistance in a microbial population, we conducted a frequency of resistance (FoR) assay following established protocols[10],[31]–[33]. […] Prior to plating, bacteria were grown overnight in MHB medium at 37 °C and 250 RPM, then centrifuged and washed in MHB. All experiments were performed in triplicate, and plates were incubated at 37 °C for 48 hours. Total colony-forming units (CFUs) were determined by plating appropriate dilutions onto antibiotic-free MHB agar. Resistance frequencies were calculated by dividing the number of resistant colonies by the initial viable cell count. From the plates with the highest antibiotic concentration, ten colonies were selected for MIC determination and whole-genome sequencing.
A robotic liquid handling system was used to automatically prepare a 11 to 16-step serial dilution in 384-well microtiter plates (Greiner). A final concentration of 5 × 10^5 bacterial cells per mL were inoculated into each well containing 60 µL MHB medium. Bacterial cultures were incubated at 37 °C with continuous shaking (Infors shaker, 900 rpm with 3 mm throw) for 18 hours (2 replicates from each). Cell growth was monitored by measuring the optical density (OD600 values, using Biotek Synergy microplate reader). MIC was defined as the antibiotic concentration of complete growth inhibition (i.e., OD600 < 0.05). Relative MIC was calculated as follows:1 relativeMIC=MICevolved/MICancestor […]
Supplementary Figure 3. Resistance levels following the frequency of resistance assay across bacterial strains. The level of resistance was measured as the fold change in relative MIC between evolved and ancestral strains. Data are grouped by bacterial strain (A. baumannii (AB), E. coli (EC), K. pneumoniae (KP), and P. aeruginosa (PA)) and categorized as either multidrug-resistant (MDR) or sensitive (SEN). Each data point represents a laboratory evolved line, and boxplots show the median, first and third quartiles, with whiskers indicating the 5th and 95th percentiles. […]
analysis was performed using two-sided Dunn’s post-hoc test with Benjamini-Hochberg correction for multiple comparisons (**/ * indicates p < 0.01/ 0.05). For detailed information on antibiotic and bacterial species, see Supplementary Table 1. For mode of action groups, refer to Table 1. Source data are provided as a Source Data file.

[2] = test system: E. coli ATCC 25922 (SEN) and E. coli NCTC13846 (MDR); assay: microbe, parasite or virus in culture; type: cell-based, Escherichia coli; settings: for MIC: across three biological replicates
Method: This study focused on multiple bacterial strains, as follows. For the FoR and ALE experiments, 2 strains per species were chosen: E. coli ATCC 25922, K. pneumoniae ATCC 10031, A. baumannii ATCC 17978, and P. aeruginosa ATCC BAA-3107 as sensitive (SEN) strains, and E. coli NCTC13846, K. pneumoniae ATCC 700603, A. baumannii ATCC BAA-1605 and P. aeruginosa LESB58 as multi-drug resistant (MDR) strains. Functional metagenomic screens were performed with E. coli ATCC 25922 and K. pneumoniae ATCC 10031 strains. To determine the dose-kill properties of the different antibiotics, an E. coli strain (ATCC 25922) expressing a yellow fluorescent protein (pZS2R, YFP, CHL^R) and a red fluorescent protein (pZS2R, mCherry, CHL^R) was used.
Unless otherwise indicated, cation-adjusted Mueller-Hinton Broth 2 (MHB, Millipore) medium was used throughout the study, except for SCH79797 (SCH).
A robotic liquid handling system was used to automatically prepare a 11 to 16-step serial dilution in 384-well microtiter plates (Greiner). A final concentration of 5 × 10^5 bacterial cells per mL were inoculated into each well containing 60 µL MHB medium. Bacterial cultures were incubated at 37 °C with continuous shaking (Infors shaker, 900 rpm with 3 mm throw) for 18 hours (2 replicates from each). Cell growth was monitored by measuring the optical density (OD600 values, using Biotek Synergy microplate reader). MIC was defined as the antibiotic concentration of complete growth inhibition (i.e., OD600 < 0.05). Relative MIC was calculated as follows:1 relativeMIC=MICevolved/MICancestor

[3] = Escherichia coli ATCC 25922 (EC-SEN), evolved line 1 versus ancestor
[4] = Escherichia coli ATCC 25922 (EC-SEN), evolved line 2 versus ancestor
[5] = Escherichia coli ATCC 25922 (EC-SEN), evolved line 3 versus ancestor
[6] = Escherichia coli ATCC 25922 (EC-SEN), ancestor strain, sheet fig 2a
[7] = Escherichia coli, Escherichia coli ATCC 25922 (EC-SEN)
[8] = Escherichia coli, Escherichia coli NCTC 13846 (EC-MDR)
[9] = E. coli ATCC 25922 (EC-SEN), evolved line 1
[10] = E. coli ATCC 25922 (EC-SEN), evolved line 1, evolved vs ancestor
[11] = E. coli ATCC 25922 (EC-SEN), evolved line 2
[12] = E. coli ATCC 25922 (EC-SEN), evolved line 2, evolved vs ancestor
[13] = E. coli ATCC 25922 (EC-SEN), evolved line 3
[14] = E. coli ATCC 25922 (EC-SEN), evolved line 3, evolved vs ancestor
[15] = FoR assay, Escherichia coli ATCC 25922 (EC-SEN), evolved line 1
[16] = FoR assay, Escherichia coli ATCC 25922 (EC-SEN), evolved line 2
[17] = FoR assay, Escherichia coli ATCC 25922 (EC-SEN), evolved line 3
[18] = E. coli ATCC 25922 (EC-SEN), ancestor strain, sheet fig 2a
[19] = Escherichia coli ATCC 25922 (EC-SEN)
[20] = Escherichia coli NCTC 13846 (EC-MDR)
[21] = ancestor EC-SEN (Escherichia coli ATCC 25922)

In the case of C[C@H]1c2cccc(O)c2C(=O)C2=C(O)[C@]3(O)C(=O)C(C(N)=O)=C(O)[C@@H](N(C)C)[C@@H]3[C@@H](O)[C@@H]21 [Doxycycline], the “Relative MIC” value [1, 3] is reported as 2, the “Relative MIC” value [1, 4] is reported as 4 and the “Relative MIC” value [1, 5] is reported as 2. It also gave an MIC ([1]; evolved line 1) of 2 µg/mL, an MIC ([1]; evolved line 2) of 4 µg/mL and an MIC ([1]; evolved line 3) of 2 µg/mL. It also gave an MIC of ancestor ([2]; Escherichia coli ATCC 25922 (EC-SEN), ancestor strain) of 1 µg/mL, an MIC of ancestor [2, 6] of 1 µg/mL and an MIC [2, 7] of 1 µg/mL. For the same compound, the MIC [2, 8] was 16 µg/mL.
CC(C)c1ccc(Cn2ccc3c4c(N)nc(NC5CC5)nc4ccc32)cc1 [SCH79797] was tested, and the MIC of evolved line [1, 9] was 8 µg/mL, the “Relative MIC” value [1, 10] was 2 and the MIC of evolved line [1, 11] was 8 µg/mL. For the same compound, the “Relative MIC” value [1, 12] was 2, the MIC of evolved line [1, 13] was 8 µg/mL and the “Relative MIC” value [1, 14] was 2. For the same compound, the “Relative MIC” value [1, 15] was 2, the “Relative MIC” value [1, 16] was 2 and the “Relative MIC” value [1, 17] was 2. The MIC of ancestor [2, 18] was 4 µg/mL, the MIC [2, 19] was 4 µg/mL and the MIC [2, 20] was 16 µg/mL. For the same compound, the MIC of ancestor [2, 21] was 4 µg/mL.
COc1c(N2C[C@@H]3CCCN[C@@H]3C2)c(F)cc2c(=O)c(C(=O)O)cn(C3CC3)c12 [Moxifloxacin] gave an MIC of ancestor ([2]; Escherichia coli ATCC 25922 (EC-SEN), ancestor) of 0.0312 µg/mL, an MIC of ancestor [2, 6] of 0.0312 µg/mL and an MIC [2, 7] of 0.0312 µg/mL. The MIC [2, 8] was > 32 µg/mL.
In the case of CC(C)C[C@@H]1NC(=O)[C@@H](Cc2ccccc2)NC(=O)[C@H](CCN)NC(=O)[C@@H](NC(=O)[C@H](CN)NC(=O)[C@@H](NC(=O)C[C@H](CN)c2cccc(Cl)c2)[C@@H](C)O)CCNC(=O)[C@H]([C@@H](C)O)NC(=O)[C@H](CCN)NC(=O)[C@H](CCN)NC1=O [SPR206] (X1-T[Dap][Dab][Dab][dF]L[Dab][Dab]T; lactam 3-C (inferred); N-terminus assumed), the MIC of evolved line [1, 9] is reported as 32 µg/mL, the “Relative MIC” value [1, 10] is reported as 128 and the MIC of evolved line [1, 11] is reported as 32 µg/mL. The “Relative MIC” value [1, 12] was 128, the MIC of evolved line [1, 13] was 32 µg/mL and the “Relative MIC” value [1, 14] was 128. For the same compound, the MIC of evolved line ([1]; E. coli NCTC 13846 (EC-MDR), evolved line 1) was 64 µg/mL, the “Relative MIC” value ([1]; E. coli NCTC 13846 (EC-MDR), evolved line 1, evolved vs ancestor) was 16 and the MIC of evolved line ([1]; E. coli NCTC 13846 (EC-MDR), evolved line 2) was 64 µg/mL. The “Relative MIC” value ([1]; E. coli NCTC 13846 (EC-MDR), evolved line 2, evolved vs ancestor) was 16, the MIC of evolved line ([1]; E. coli NCTC 13846 (EC-MDR), evolved line 3) was 64 µg/mL and the “Relative MIC” value ([1]; E. coli NCTC 13846 (EC-MDR), evolved line 3, evolved vs ancestor) was 16. The “Relative MIC” value [1, 15] was 128, the “Relative MIC” value [1, 16] was 128 and the “Relative MIC” value [1, 17] was 128. For the same compound, the “Relative MIC” value ([1]; FoR assay, Escherichia coli NCTC 13846 (EC-MDR), evolved line 1) was 16, the “Relative MIC” value ([1]; FoR assay, Escherichia coli NCTC 13846 (EC-MDR), evolved line 2) was 16 and the “Relative MIC” value ([1]; FoR assay, Escherichia coli NCTC 13846 (EC-MDR), evolved line 3) was 16. It also gave an MIC of ancestor ([2]; E. coli ATCC 25922 (EC-SEN), ancestor strain) of 0.25 µg/mL, an MIC of ancestor [2, 18] of 0.25 µg/mL and an MIC of ancestor ([2]; E. coli NCTC 13846 (EC-MDR), ancestor strain) of 4 µg/mL. It also gave an MIC of ancestor ([2]; E. coli NCTC 13846 (EC-MDR), ancestor strain, sheet fig 2a) of 4 µg/mL, an MIC [2, 19] of 0.25 µg/mL and an MIC [2, 20] of 4 µg/mL.
With CC[C@H](C)CCCCC(=O)N[C@@H](CCN)C(=O)N[C@H](C(=O)N[C@@H](CCN)C(=O)N[C@H]1CCNC(=O)[C@H]([C@@H](C)O)NC(=O)[C@H](CCN)NC(=O)[C@H](CCN)NC(=O)[C@H](CC(C)C)NC(=O)[C@@H](Cc2ccccc2)NC(=O)[C@H](CCN)NC1=O)[C@@H](C)O [Polymyxin B] (X2-[Dab]T[Dab][Dab][Dab][dF]L[Dab][Dab]T; lactam 4-C (inferred); N-terminus assumed) the MIC [2, 19] was 1 µg/mL and the MIC [2, 20] was 4 µg/mL.
With C[C@@H]1CN2c3c(cc4c(N5C(=O)OC[C@@H]5C)noc4c3F)CC3(C(=O)NC(=O)NC3=O)[C@H]2[C@H](C)O1 [Zoliflodacin] the “Relative MIC” value [1, 3] was 8, the “Relative MIC” value [1, 4] was 8 and the “Relative MIC” value [1, 5] was 8. It also gave an MIC ([1]; evolved line 2) of 16 µg/mL, an MIC of ancestor [2, 6] of 2 µg/mL and an MIC [2, 7] of 2 µg/mL. The MIC [2, 8] was 16 µg/mL and the MIC of ancestor [2, 21] was 2 µg/mL.
